EP3294317B1, “ENHANCED ANTIBIOTIC COMPOSITION” (Universitat Autònoma de Barcelona, priority 2015, dated 2016)

Tests used:
[1] = system: S. maltophilia 257; assay: Broth microdilution MIC of other antibiotics with potentiator compounds, clinical isolates (Example 4); assay type: cell-based, Stenotrophomonas maltophilia; conditions: MIC in 1.0% DMSO / MIC with 0.1 mM compound and 1.0% DMSO
Procedure: (§1) Following the procedure of Example 3, ciprofloxacin, amikacin, levofloxacin, imipenem and the combination trimethoprim/sulfamethoxasole (1:19) were tested. All were purchased from Sigma-Aldrich Co.
(§2) Minimal inhibitory concentration (MIC) of the antibiotic or the test combinations were determined by the broth microdilution method.
(§3) Antibiotic stock solutions were prepared according to CLSI recommendations and sterilizing by passage through 0.20 µm filters.
(§4) Antimicrobial susceptibility testing of these isolates was performed using the broth microdilution (BMD) method, according to CLSI guidelines.
(§5) The fold increase in bacterial susceptibility to antibiotics when combined with the potentiator compound (expressed as MIC in the presence of 1.0% DMSO / MIC in the presence of 0.1 mM of each potentiator compound and 1.0% DMSO) are shown in Table 7: […]

[2] = system: Escherichia coli ATCC 9637; assay: Colistin broth microdilution MIC with potentiator compounds (Example 1); assay type: cell-based; conditions: E. coli ATCC 9637; MIC in the presence of 1.0% DMSO / MIC in the presence of 0.1 mM potentiator compound and 1.0% DMSO; positive = increased, negative = decreased susceptibility, 1 = no effect
[3] = system: Enterobacter aerogenes ATCC 13048; assay: as above; assay type: cell-based; conditions: E. aerogenes ATCC 13048; MIC in the presence of 1.0% DMSO / MIC in the presence of 0.1 mM potentiator compound and 1.0% DMSO; positive = increased, negative = decreased susceptibility, 1 = no effect
[4] = system: Pseudomonas aeruginosa ATCC 27853; assay: as above; assay type: cell-based; conditions: P. aeruginosa ATCC 27853; MIC in the presence of 1.0% DMSO / MIC in the presence of 0.1 mM potentiator compound and 1.0% DMSO; positive = increased, negative = decreased susceptibility, 1 = no effect
[5] = system: S. aureus RN6911; assay: Broth microdilution MIC of compound of formula I alone (Example 5); assay type: cell-based; conditions: Staphylococcus aureus, RN6911, read-out: Compound of formula I MIC in the presence of 1.0% DMSO
Procedure: (§6) The antimicrobial effect of the compound of formula I of the invention was tested in front of specific Gram-positive bacterium, Staphylococcus aureus, an agent usually involved in hospital-acquired infections. For this experiment the S. aureus reference and clinical isolates shown in Table 8 were used, including Methicillin-resistant S. aureus (MRSA): TABLE 8
(§7) Antimicrobial susceptibility testing of these isolates was performed using the broth microdilution (BMD) method, according to CLSI guidelines (Example 1).
(§8) Selected compound of formula I was first dissolved in 100% of sterile-filtered dimethyl sulfoxide (DMSO, Sigma, D2438) to 20 mM. 100 µL of bacterial suspension (final OD550nm=0.01) in MHB were added to the compound dilutions in each well (concentration range from 0.2 mM to 3.125 µM), and the final suspension was mixed and incubated without shaking at 37° C for 24 h before developing with 30 µL of a 0.01% aqueous solution of resazurin. For the experiment all bacteria were first grown overnight in CAMHB using CLSI recommended incubation conditions.
(§9) The compound MIC, expressed in mM, was defined as the lowest concentration of compound at which no visible growth was obtained.

[6] = system: S. aureus SA0001; assay: as above; assay type: cell-based; conditions: Staphylococcus aureus, Clinical strain, (resistant to penicillin), read-out: Compound of formula I MIC in the presence of 1.0% DMSO
Procedure: as §6, §7, §8, §9

[7] = system: S. aureus SA0003; assay: as above; assay type: cell-based; conditions: Staphylococcus aureus, Clinical strain, (resistant to penicillin), read-out: Compound of formula I MIC in the presence of 1.0% DMSO
Procedure: as §6, §7, §8, §9

[8] = system: S. aureus RN4220; assay: as above; assay type: cell-based; conditions: Staphylococcus aureus, RN4220, read-out: Compound of formula I MIC in the presence of 1.0% DMSO
Procedure: as §6, §7, §8, §9

[9] = system: S. aureus SA0004; assay: as above; assay type: cell-based; conditions: Staphylococcus aureus, Clinical strain, (MRSA, and resistant to ciprofloxacin and cloxacillin), read-out: Compound of formula I MIC in the presence of 1.0% DMSO
Procedure: as §6, §7, §8, §9

[10] = system: S. aureus F-182; assay: as above; assay type: cell-based; conditions: Staphylococcus aureus, ATCC43300, Reference strain, ATCC 43300 (CLSI standard), read-out: Compound of formula I MIC in the presence of 1.0% DMSO
Procedure: as §6, §7, §8, §9

[11] = system: S. aureus RN6390; assay: as above; assay type: cell-based; conditions: Staphylococcus aureus, RN6390, read-out: Compound of formula I MIC in the presence of 1.0% DMSO
Procedure: as §6, §7, §8, §9

[12] = system: S. aureus Seatle 1945; assay: as above; assay type: cell-based; conditions: Staphylococcus aureus, ATCC25923, Reference strain, ATCC 25923, read-out: Compound of formula I MIC in the presence of 1.0% DMSO
Procedure: as §6, §7, §8, §9

[13] = system: S. aureus SA0002; assay: as above; assay type: cell-based; conditions: Staphylococcus aureus, Clinical strain, (resistant to penicillin), read-out: Compound of formula I MIC in the presence of 1.0% DMSO
Procedure: as §6, §7, §8, §9

[14] = system: S. aureus USA 300; assay: as above; assay type: cell-based; conditions: Staphylococcus aureus, ATCC BAA-1556 / MRSA / USA300, Reference strain, read-out: Compound of formula I MIC in the presence of 1.0% DMSO
Procedure: as §6, §7, §8, §9

[15] = system: A. baumannii 6799; assay: Broth microdilution MIC of other antibiotics with potentiator compounds, clinical isolates (Example 4); assay type: cell-based, Acinetobacter baumannii
Procedure: as §1, §2, §3, §4, §5

[16] = system: A. baumannii 6963; assay: as above; assay type: cell-based, Acinetobacter baumannii; conditions: MIC in 1.0% DMSO / MIC with 0.1 mM compound and 1.0% DMSO
Procedure: as §1, §2, §3, §4, §5

[17] = MIC in 1.0% DMSO / MIC with 0.1 mM compound and 1.0% DMSO

CN(C)CCNC(=O)c1cccc(CNC(=O)Nc2ccc3c(c2)Cc2ccccc2-3)c1 [I, N-[2-(dimethylamino)ethyl]-3-[(9H-fluoren-2-ylcarbamoylamino)methyl]benzamide] was tested, and the “Fold increase in bacterial susceptibility to Levofloxacin” value (from here on “Fold increase … to Levofloxacin”) [1] was “Levofloxacin (2) fold”, the “Fold increase in bacterial susceptibility to colistin” value (“Fold increase … to colistin” below) [2] was “+2 fold” and the “Fold increase … to colistin” value [3] was “+2 fold”. For the same compound, the “Fold increase … to colistin” value [4] was “+2 fold”, the MIC [5] was 200 µM and the MIC [6] was 200 µM. The MIC [7] was 100 µM, the MIC [8] was 200 µM and the MIC [9] was 200 µM. It also gave an MIC [10] of 200 µM, an MIC [11] of 200 µM and an MIC [12] of 200 µM. For the same compound, the MIC [13] was 100 µM, the MIC [14] was 200 µM and the “Fold increase in bacterial susceptibility to Amikacin” value [15, 17] was 2 fold. The “Fold increase in bacterial susceptibility to Ciprofloxacin” value [15, 17] was 8 fold, the “Fold increase in bacterial susceptibility to Imipenem” value [15, 17] was 4 fold and the “Fold increase … to Levofloxacin” value [15, 17] was 2 fold. The “Fold increase in bacterial susceptibility to TMP/SMX” value ([15]; Trimethoprim:sulfamethoxazole 1:19, MIC in 1.0% DMSO / MIC with 0.1 mM compound and 1.0% DMSO) was 2 fold, the “Fold increase in bacterial susceptibility to Ciprofloxacin” value [16] was “Ciprofloxacin (2) Levofloxacin (2) Imipenem (2) fold” and the “Fold increase in bacterial susceptibility to Imipenem” value [16] was “Ciprofloxacin (2) Levofloxacin (2) Imipenem (2) fold”. For the same compound, the “Fold increase … to Levofloxacin” value [16] was “Ciprofloxacin (2) Levofloxacin (2) Imipenem (2) fold”.
